Experimental data taken from US20260285853A1, “COMPOUNDS AND METHODS FOR MODULATING SPLICING” (REMIX THERAPEUTICS INC., priority 2023, published 2026).

Experiments:
Assay type in all cases: cell-based
HTT mRNA [1] = experiment: Splicing RT-qPCR assay, canonical (CJ) and alternative (AJ) junction mRNA, K562 cells; conditions: Homo sapiens, K562.3 cells, 24 hours; for AC50: read-out: HTT AJ (AC50, increase in AJ mRNA); for IC50: read-out: HTT CJ (IC50, decrease in CJ mRNA)
Method in brief: (§1)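 RT-qPCR read-out: CJ and AJ isoforms quantified by ΔCt against GAPDH or GUSB, normalized to DMSO, and converted to % response. Windows in 96-well format (50,000 cells/well) were 4.0 ΔCt for MYB-CJ and 3 for MYB-AJ, and 3.5 ΔCt for HTT-CJ and 9 for HTT-AJ. Cells were dosed for 24 h, top 10 uM.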

MYB mRNA [2] = experiment: as above; conditions: Homo sapiens, K562.3 cells, 24 hours; for AC50: read-out: MYB AJ (AC50, increase in AJ mRNA); for IC50: read-out: MYB CJ (IC50, decrease in CJ mRNA)
Method in brief: as §1

HTT mRNA [3] = experiment: Splicing RT-qPCR assay (THP), Table 2A; conditions: Table 2A (THP); for AC50: AJ mRNA increase, read-out: HTT AJ (increase in alternative junction mRNA, AC50); for IC50: CJ mRNA decrease, read-out: HTT CJ (decrease in canonical junction mRNA, IC50)
MYB mRNA [4] = experiment: Splicing RT-qPCR assay (THP), Table 2A; conditions: Table 2A (THP); for AC50: AJ mRNA increase, read-out: MYB AJ (increase in alternative junction mRNA, AC50); for IC50: CJ mRNA decrease, read-out: MYB CJ (decrease in canonical junction mRNA, IC50)

| SMILES | IC50 (HTT mRNA [1]) | IC50 (MYB mRNA [2]) | IC50 (HTT mRNA [3]) | IC50 (MYB mRNA [4]) | AC50 (HTT mRNA [1]) | AC50 (MYB mRNA [2]) | AC50 (HTT mRNA [3]) | AC50 (MYB mRNA [4]) |
| --- | --- | --- | --- | --- | --- | --- | --- | --- |
| Cc1cn2cc(NC(=O)c3ccc(N4C[C@@H](C)N[C@@H](C)C4)c4nn(C)nc34)cc(F)c2n1 [Compound 252, 7-((3S,5R)-3,5-dimethyl-piperazin-1-yl)-N-(8-fluoro-2-methyl-imidazo[1,2-a]pyridin-6-yl)-2-methyl-2H-benzo[d][1,2,3]triazole-4-carboxamide 2,2,2-trifluoroacetate] | 100 to 1000 nM | 100 to 1000 nM | 100 to 1000 nM | 100 to 1000 nM | 100 to 1000 nM | 100 to 1000 nM | 1000 to 10000 nM | 100 to 1000 nM |
| CCN[C@@H]1CCN(c2cc(O)c(C(=O)Nc3cc(F)c4nn(C)cc4c3)c3nn(C)cc23)C1 [Compound 294, 4-[(3R)-3-(ethylamino)-pyrrolidin-1-yl]-N-(7-fluoro-2-methyl-indazol-5-yl)-6-hydroxy-2-methyl-indazole-7-carboxamide] | 100 to 1000 nM | < 100 nM | 1000 to 10000 nM | < 100 nM | 1000 to 10000 nM | < 100 nM | 1000 to 10000 nM | < 100 nM |

Further lines, with some results ahead:

| IC50 (HTT mRNA [1]) | IC50 (MYB mRNA [2]) | IC50 (HTT mRNA [3]) | IC50 (MYB mRNA [4]) | SMILES | AC50 (HTT mRNA [1]) | AC50 (MYB mRNA [2]) | AC50 (HTT mRNA [3]) | AC50 (MYB mRNA [4]) |
| --- | --- | --- | --- | --- | --- | --- | --- | --- |
| > 10000 nM | > 10000 nM | > 10000 nM | > 10000 nM | CCNC1CCN(c2cc(F)c(C(=O)Nc3cc(F)c4nc(C)cn4c3)c3ccoc23)CC1 [Compound 195, 7-[4-(ethylamino)-1-piperidyl]-5-fluoro-N-(8-fluoro-2-methylimidazo[1,2-a]pyridin-6-yl)-benzofuran-4-carboxamide] | > 10000 nM | > 10000 nM | > 10000 nM | > 10000 nM |
| > 10000 nM | > 10000 nM | > 10000 nM | > 10000 nM | CN[C@H]1CCN(c2ccc(C(=O)Nc3cc(F)c4nc(C)cn4c3)c3c2nnn3C)C1 [Compound 160, N-(8-fluoro-2-methyl-imidazo[1,2-a]pyridin-6-yl)-3-methyl-7-[(3S)-3-(methylamino)-pyrrolidin-1-yl]benzotriazole-4-carboxamide] | > 10000 nM | > 10000 nM | > 10000 nM | > 10000 nM |
| 100 to 1000 nM | < 100 nM | 100 to 1000 nM | < 100 nM | Cc1cn2cc(NC(=O)c3ccc(N4CCC(NC5CC5C)CC4)c4cn(C)nc34)cc(F)c2n1 (stereo not shown) [Compound 204, N-(8-fluoro-2-methyl-imidazo[1,2-a]pyridin-6-yl)-2-methyl-4-[4-[(2-methyl-cyclopropyl)amino]-1-piperidyl] indazole-7-carboxamide] | 100 to 1000 nM | < 100 nM | 100 to 1000 nM | < 100 nM |
